ChEMBL document CHEMBL1136662, “Synthesis and properties of 11-(3,5-di-tert-butyl-2-hydroxyphenylcarbamoyl)undecanoic acid, a new amphiphilic antioxidant” (Bioorg Med Chem Lett, 2003)

Experiment: Hydrophobicity was determined
Type: ADME

k' | Structure (SMILES)
6.39 | COCCCCCCCCCCCC(=O)Nc1cc(C(C)(C)C)cc(C(C)(C)C)c1O
25.2 | CCCCCCCCCCCCCC(=O)Nc1cc(C(C)(C)C)cc(C(C)(C)C)c1O

The next lines start with the compound.

Structure (SMILES) | k'
CC(C)(C)c1cc(NC(=O)CCCCCCCCC(=O)O)c(O)c(C(C)(C)C)c1 | 0.38
CCCCCCCCCC(=O)Nc1cc(C(C)(C)C)cc(C(C)(C)C)c1O | 7.13
CCCCCCCCCCCC(=O)Nc1cc(C(C)(C)C)cc(C(C)(C)C)c1O | 12.6
